Here are results for 25 compounds from patent US20250027035A1, “HEAVY METAL-ANTIBIOTIC MULTIPLE RESISTANT BACTERIA AND ITS APPLICATION” (priority 2023, published 2025).

One test concerns Rossellomorea oryzaecorticis ZC255. Put plainly: Metal tolerance of the strain in 2216E liquid medium containing heavy metal. In kind it is cell-based. As to conditions: 2216E liquid medium containing the heavy metal. As to the method:
• Step 1: the single colonies in Embodiment 1 ‘2.1 morphological characteristics’ are selected and added to the 2216E liquid medium for 24 h to obtain the seed liquid, and then it is added to the liquid containing heavy metals or antibiotics for 48 h. • Step 2: the concentration of heavy metals/antibiotics before and after the addition of seed solution is measured by atomic absorption.
In addition, the highest tolerance concentration of the strain to Cd2+is 820 mg/L; the highest tolerance concentration of Zn2+, Ni2+, Pb2+and Cr3+is 2660 mg/L, 1210 mg/L, 1640 mg/L and 400 mg/L respectively.
For `[Cd+2]` [Cd2+], the “maximum (highest) tolerance concentration of the strain” value (shortened to “maximum”) was 820 mg/L.
Regarding `[Cr+3]` [Cr3+], the “maximum” value is 400 mg/L.
With `[Ni+2]` [Ni2+], the “maximum” value is 1210 mg/L.
Still for that read-out and setting: the value for `[Pb+2]` [Pb2+] was 1640 mg/L; that for `[Zn+2]` [Zn2+] was 2660 mg/L.

The test system is the same in a further test. The test is described as follows: Drug sensitivity test of strains (antibiotic tolerance). On Results of drug sensitivity test of strains: key: R: resistance; S: sensitivity; I: betweenness. Type of test: cell-based.
Settings: not given
For `CC1(C)S[C@@H]2[C@H](NC(=O)[C@H](N)c3ccccc3)C(=O)N2[C@H]1C(=O)O` [Ampicillin], the “Results of drug sensitivity test of strains” value (“Results” for short) was “S”.
For `CC1(C)S[C@@H]2[C@H](NC(=O)C(C(=O)O)c3ccccc3)C(=O)N2[C@H]1C(=O)O` (stereo partly shown) [Carbenicillin], the “Results” value was “S”.
Consider `CO/N=C(\C(=O)N[C@@H]1C(=O)N2C(C(=O)O)=C(COC(C)=O)CS[C@H]12)c1csc(N)n1` [Cefotaxime], for which the “Results” value is “I”.
Regarding `CO/N=C(\C(=O)N[C@@H]1C(=O)N2C(C(=O)O)=C(CSc3nc(=O)c(=O)[nH]n3C)CS[C@H]12)c1csc(N)n1` [Ceftriaxone], the “Results” value was “R” and the “drug sensitivity of the strain, result in words” value (shortened to “drug sensitivity of the strain”) was “drug resistance”.
For the compound `O=C(N[C@H](CO)[C@H](O)c1ccc([N+](=O)[O-])cc1)C(Cl)Cl` [Chloramphenicol], the “Results” value is “S”.
`CC[C@H]1OC(=O)[C@H](C)[C@@H](O[C@H]2C[C@@](C)(OC)[C@@H](O)[C@H](C)O2)[C@H](C)[C@@H](O[C@@H]2O[C@H](C)C[C@H](N(C)C)[C@H]2O)[C@](C)(OC)C[C@@H](C)C(=O)[C@H](C)[C@@H](O)[C@]1(C)O` [Clarithromycin]: the “Results” value is listed as “S”.
On to `CC[C@H]1OC(=O)[C@H](C)[C@@H](O[C@H]2C[C@@](C)(OC)[C@@H](O)[C@H](C)O2)[C@H](C)[C@@H](O[C@@H]2O[C@H](C)C[C@H](N(C)C)[C@H]2O)[C@](C)(O)C[C@@H](C)C(=O)[C@H](C)[C@@H](O)[C@]1(C)O` [Erythromycin], for which the “Results” value was “R” and the “drug sensitivity of the strain” value is “drug resistance”.
With `NC[C@H]1O[C@H](O[C@H]2[C@H](O)[C@@H](O[C@H]3O[C@H](CO)[C@@H](O)[C@H](N)[C@H]3O)[C@H](N)C[C@@H]2N)[C@H](O)[C@@H](O)[C@@H]1O` [Kanamycin], the “Results” value was “R”.
Take `CCC[C@@H]1C[C@@H](C(=O)N[C@@H]([C@H]2O[C@H](SC)[C@H](O)[C@@H](O)[C@H]2O)[C@@H](C)O)N(C)C1` [Lincomycin]: the “Results” value is recorded as “R” and the “drug sensitivity of the strain” value was “drug resistance”.
For the compound `CCn1cc(C(=O)O)c(=O)c2cc(F)c(N3CCNCC3)cc21` [Norfloxacin], the “Results” value is reported as “R” and the “drug sensitivity of the strain” value is recorded as “drug resistance”.
As to `CC1COc2c(N3CCN(C)CC3)c(F)cc3c(=O)c(C(=O)O)cn1c23` (stereo not shown) [Ofloxacin], the “Results” value is “R”.
Regarding `CO[C@H]1/C=C/O[C@@]2(C)Oc3c(C)c(O)c4c(O)c(c(/C=N/N5CCN(C)CC5)c(O)c4c3C2=O)NC(=O)/C(C)=C\C=C\[C@H](C)[C@H](O)[C@@H](C)[C@@H](O)[C@@H](C)[C@H](OC(C)=O)[C@@H]1C` [Rifampicin], the “Results” value is “I”.
Consider `[H]/N=C(/N)N[C@H]1[C@H](O)[C@@H](O)[C@H](O[C@@H]2O[C@@H](C)[C@](O)(C=O)[C@H]2O[C@@H]2O[C@@H](CO)[C@H](O)[C@@H](O)[C@@H]2NC)[C@@H](N/C(N)=N\[H])[C@@H]1O` [Streptomycin], for which the “Results” value is “R” and the “drug sensitivity of the strain” value is given as “drug resistance”.
In the case of `CN(C)[C@@H]1C(O)=C(C(N)=O)C(=O)[C@@]2(O)C(O)=C3C(=O)c4c(O)cccc4[C@@](C)(O)[C@H]3C[C@@H]12` [Tetracycline], the “Results” value is on record as “R”.
Regarding `NC[C@H]1O[C@H](O[C@H]2[C@H](O)[C@@H](O[C@H]3O[C@H](CO)[C@@H](O)[C@H](N)[C@H]3O)[C@H](N)C[C@@H]2N)[C@H](N)C[C@@H]1O` [Tobramycin], the “Results” value is reported as “R” and the “drug sensitivity of the strain” value is recorded as “drug resistance”.
With `CN[C@H](CC(C)C)C(=O)N[C@H]1C(=O)N[C@@H](CC(N)=O)C(=O)N[C@H]2C(=O)N[C@H]3C(=O)N[C@H](C(=O)N[C@H](C(=O)O)c4cc(O)cc(O)c4-c4cc3ccc4O)[C@H](O)c3ccc(c(Cl)c3)Oc3cc2cc(c3O[C@@H]2O[C@H](CO)[C@@H](O)[C@H](O)[C@H]2O[C@H]2C[C@](C)(N)[C@H](O)[C@H](C)O2)Oc2ccc(cc2Cl)[C@H]1O` [Vancomycin], the “Results” value was “S”.
Take Gentamicin: the “Results” value was “R” and the “drug sensitivity of the strain” value is listed as “drug resistance”.
Regarding Neomycin, the “Results” value is “R” and the “drug sensitivity of the strain” value was “drug resistance”.
As for Penicillin, the “Results” value is given as “S”.
As to Polymyxin B, the “Results” value is “R” and the “drug sensitivity of the strain” value is given as “drug resistance”.
